Source: patent publication US12496329B2, “Methods of using and compositions including an incretin analog” (Eli Lilly and Company, priority 2021, dated 2025)
Marks after values point to notes of the source that are not given here.

Assay: MAD study in individuals with diabetes: pharmacodynamics (OGTT, glucose, HbA1c, body weight, appetite VAS)
Type: in vivo, human
Design: OGIS Index, change from baseline / Disposition Index, change from baseline: unit not given here
Settings: for Disposition Index, change from baseline / HOMA2-B, change from baseline / HOMA2-IR, change from baseline / Insulin Sensitivity Matsuda Index, change from baseline / Insulinogenic Index, change from baseline / OGIS Index, change from baseline / OGTT C-peptide AUC (0-2 hr), change from baseline / OGTT GCG AUC (0-2 hr), change from baseline / OGTT glucose AUC (0-2 hr), change from baseline / OGTT insulin AUC (0-2 hr), change from baseline / Daily mean plasma glucose, change from baseline / HbA1c, change from baseline: 1.5 mg Dula
Excerpt: Studies are designed to evaluate the safety, tolerability, PD and PK of the GGG tri-receptor agonist (SEQ ID NO:1) in individuals with diabetes. The MAD study is a randomized, investigator- and participant-blind, placebo-controlled, multiple-ascending dose, single-site study conducted in individuals with diabetes (i.e., females or males aged 20-70 years, inclusive, with T2DM for at least 3 months and HbA1c at lead-in and screening of ≥7.0% and ≤10.5% and treated with diet and exercise alone or a stable dose of metformin for at least 3 months prior to screening, with stable body weight for 3 months prior to randomization and with a BMI of 23-50 kg/m^2 at screening).
Dose escalation of the GGG tri-receptor agonist is assessed over 12 weeks in cohorts with a starting dose of 0.5 mg. One cohort of 13 individuals is administered 0.5 mg for 12 weeks. A second cohort of 13 individuals is administered 1.5 mg for 12 weeks. A third cohort of 15 individuals is administered 3.0 mg for 12 weeks. A fourth cohort of 15 individuals is administered 3.0 mg for 4 weeks and then administered 6.0 mg for 8 weeks. A fifth cohort of 16 individuals is administered 3.0 mg for 2 weeks, administered 6.0 mg for 2 weeks, administered 9.0 mg for 4 weeks, and then administered 12 mg for 4 weeks. Alternate dose increment steps may be introduced based on emerging safety and tolerability data from the preceding cohorts, and the dose increment steps can be reduced. As a non-limiting example, in Cohort 4, escalation from starting dose of 3 mg may occur via a step-through dose of 4.5 mg before attaining 6 mg, in Cohort 5, escalation from starting dose of 3 to 12 mg may occur via an additional step through dose level of 4.5 mg, prior to the planned doses 6 and 9 mg. In addition to these proposed alternate regimens in Cohort 4 and Cohort 5, planned dose for escalation between cohorts and within cohorts may be further reduced if warranted by safety or tolerability data.
C-peptide, glucagon, glucose and insulin are measured for an oral glucose tolerance test (OGTT) during the study using methods known in the art for each of the analytes. In addition, HbA1c is measured at Days 1, 29, 57, 78 and 85, as well as at Week 16. The following parameters are derived from the OGTT to assess insulin resistance and β cell function: Homeostatic model assessment (HOMA)-B, HOMA-IR, insulinogenic index, insulin sensitivity (Matsuda Index) and oral glucose insulin sensitivity (OGIS).
Insulin sensitivity is calculated as per the below equation: […]
Insulin sensitivity (Matsuda Index) is calculated as per the below equation: […]
Disposition index is calculated as (IGI*ISI).
OGIS is calculated as per the below equation: […]
Satiety VAS is measured after fasting on Days 1, 8, 15, 22, 29, 36, 43, 50, 57, 64, 71, 78 and 80, as well as at Week 16. Appetite sensations are assessed using a VAS for parameters of hunger, fullness, satiety and prospective food intake, and an overall appetite score is calculated as described above in the SAD study.

[1] = 1.5 mg dulaglutide, 12-week treatment

## dulaglutide
Day 2
  Disposition Index, change from baseline: 0.0812
  HOMA2-B, change from baseline: 31.2
  HOMA2-IR, change from baseline: 0.360
  Insulin Sensitivity Matsuda Index, change from baseline: −0.0208
  Insulinogenic Index, change from baseline: 0.119
  OGIS Index, change from baseline: 23.5
  OGTT C-peptide AUC (0-2 hr), change from baseline: 879 pmol·h/L
  OGTT GCG AUC (0-2 hr), change from baseline: -1.21 pmol·h/L
  OGTT glucose AUC (0-2 hr), change from baseline: -9.10 mmol·h/L
  OGTT insulin AUC (0-2 hr), change from baseline: 322 pmol·h/L
Day 3
  Daily mean plasma glucose, change from baseline: −2.60* mmol/L
Day 29
  HbA1c, change from baseline: −0.646%
Day 30
  Disposition Index, change from baseline: 0.0866
  HOMA2-B, change from baseline: 42.2
  HOMA2-IR, change from baseline: 0.480
  Insulin Sensitivity Matsuda Index, change from baseline: −0.476
  Insulinogenic Index, change from baseline: 0.130
  OGIS Index, change from baseline: 19.4
  OGTT C-peptide AUC (0-2 hr), change from baseline: 1350 pmol·h/L
  OGTT GCG AUC (0-2 hr), change from baseline: -4.52 pmol·h/L
  OGTT glucose AUC (0-2 hr), change from baseline: -10.6 mmol·h/L
  OGTT insulin AUC (0-2 hr), change from baseline: 519 pmol·h/L
Day 31
  Daily mean plasma glucose, change from baseline: −3.89* mmol/L
Day 57
  HbA1c, change from baseline: −0.997%
Day 59
  Daily mean plasma glucose, change from baseline: −3.21* mmol/L
Day 78
  HbA1c, change from baseline: −1.07%
Day 79
  Disposition Index, change from baseline: 0.0481
  HOMA2-B, change from baseline: 25.9
  HOMA2-IR, change from baseline: 0.600
  Insulin Sensitivity Matsuda Index, change from baseline: −1.14
  Insulinogenic Index, change from baseline: 0.105
  OGIS Index, change from baseline: 38.1
  OGTT C-peptide AUC (0-2 hr), change from baseline: 354 pmol·h/L
  OGTT GCG AUC (0-2 hr), change from baseline: -1.28 pmol·h/L
  OGTT glucose AUC (0-2 hr), change from baseline: -8.44 mmol·h/L
  OGTT insulin AUC (0-2 hr), change from baseline: 188 pmol·h/L
Day 80
  Daily mean plasma glucose, change from baseline: −3.73* mmol/L
Day 85
  HbA1c, change from baseline: −0.960%
Day 106
  HbA1c, change from baseline: −0.538%
[1]
  fullness scores: increase from baseline
  hunger scores: decrease from baseline
  prospective food consumption scores: greatest decreases from baseline
  satiety scores: increase from baseline
1.5 mg, 12-weeks treatment
  maximum decrease from baseline in mean body weight: 1.3 kg
1.5 mg, Day 85
  decrease from baseline in mean waist circumference: 4.9 cm
